Laboratory results reported in patent publication EP2939983A1, “Titanium dioxide-catalysed oxidation method” (Sistiana Inversiones S.L., priority 2014, dated 2015).

Assays:
[1] = in water; cited from earlier work
[2] = Rhodamine B degradation kinetics with TiO2 catalyst, H2O2 and acid in the absence of light
Description: The walls of a beaker (Ǿ = 10 cm) were covered with aluminum foil to prevent any light exposure to the inside. A magnetic stirrer was introduced in a smaller beaker (Ǿ = 6.5 cm), which was then covered on the top with parafilm and a small hole was punched thereon. The smaller beaker was introduced concentrically into the larger one. To immobilize the inner beaker, a foam was placed between the walls of the two vessels. A cover of the same foam (Ǿ = 10 cm, 1.5 cm thick) was placed on the top of the larger beaker. In the cover, a hole (Ǿ = 0.5 cm) close to the inside wall of the inner beaker facilitated sample collection in the vortex formed during the agitation of the reaction mixture. A second hole situated on the opposite side of the first one was punched in order to facilitate pH measurements.
The catalytic reactor was placed on the stirrer (VMS-C4, VWR) at around 750 rpm. Then, the inner beaker was filled with the help of a funnel with the required amount of TiO2. Immediately afterwards, the appropriate amount of 9.8 M H2O2 and deionised water, in each case, for a total volume of 20 mL, was introduced. The mixture was stirred for 1 minute, and 20 mL of the required concentration of Rhodamine B were then added. In the cases where an acid was employed, the corresponding amount of acid to achieve a particular pH was introduced in the reaction mixture before the addition of Rhodamine B. After 3 minutes stirring, an aliquot of 1 mL was taken through a plastic Pasteur pipette and was introduced in an Eppendorf tube (1.5 mL). The sample was centrifugated (Mikro 120, Hettich Zentrifugen) at 14000 rpm for 1 minute. The supernatant was centrifugated again under the same conditions and the remaining supernatant was placed in a 1.5 mL cuvette for analysis in a spectrophotometer (Du 730, Beckman Coulter). […] Finally, the TiO2 and the liquid were reintroduced into the inner beaker. The procedure, starting with the 1 mL aliquot extraction, was repeated (at least) every 3 min for a maximum of 2 h. The experiment was repeated 4 times for every imposed condition.
Linear regressions were conducted with the obtained data. […] The kinetic constant of the reaction was the parameter used to compare the oxidative capacity of the different oxidation conditions in the method of the invention.

[3] = 5% H2O2, 10g/L TiO2 (aeroxide P90), pH=3 (HCl), 0.025 mM Rhodamine B; reaction order 0.66
[4] = 0.025 mM Rhodamine B, 30g/L of TiO2 (aeroxide P90), 5% H2O2 solution
[5] = 0.025 mM Rhodamine B, 30g/L of TiO2 (aeroxide P90), 5% H2O2 solution, pH 2.0
[6] = 0.025 mM Rhodamine B, 30g/L of TiO2 (aeroxide P90), 5% H2O2 solution, pH 2.0, absence of light
[7] = 0.050 mM Rhodamine B, 10g/L of TiO2 (aeroxide P90), 5% H2O2 solution, pH of 2

## O=S(O)O [sulfurous acid]
[1]
  pKa: 1.9

## O=S(=O)(O)O [Sulfuric, sulfuric acid]
[2]; [4]
  Rate constants for degradation kinetics (k554/min^-1), pH 1.5: 0.2360±0.0430 min^-1
[2]; [5]
  Rate constants for degradation kinetics (k554/min^-1), pH 2.0: 0.1124±0.0112 min^-1
[2]; [6]
  Rate constants for degradation kinetics (k544/min^-1): 0.1124 ± 0.0112 min⁻¹
[2]; [7]
  Rate constants for degradation kinetics (k544/min^-1): 0.0293 ± 0.0021 min⁻¹

## O=C(O)C(F)(F)F [trifluoroacetic acid]
[1]
  pKa: -0.25

## Cl [Hydrochloric, hydrochloric acid]
[2]
  Rate constants for degradation kinetics (k554/min^-1), pH 1.5: 0.3370±0.0990 min^-1
[2]; pH 2
  Rate constants for degradation kinetics (k554/min^-1), pH 2.0: 0.1260±0.0173 min^-1

## [O-][Cl+3]([O-])([O-])O [Perchloric, perchloric acid]
[2]; [4]
  Rate constants for degradation kinetics (k554/min^-1), pH 1.5: 0.3550±0.1180 min^-1
[2]; [5]
  Rate constants for degradation kinetics (k554/min^-1), pH 2.0: 0.1194±0.0095 min^-1
[2]; [6]
  Rate constants for degradation kinetics (k544/min^-1): 0.1194 ± 0.0095 min⁻¹
[2]; [7]
  Rate constants for degradation kinetics (k544/min^-1): 0.0318 ± 0.0021 min⁻¹

## [O]=[Cr](=[O])([OH])[OH] [chromic acid]
[1]
  pKa: -0.1

## O=O [oxygen]
[3]
  kinetic constant greater than that of the reaction not supplied with oxygen: about 15%

## O=CO [Formic, formic acid, reference compound]
[2]; pH 2
  Rate constants for degradation kinetics (k544/min^-1): 0.0263 ± 0.0035 min⁻¹
